Experiments:
pre-oligodendrocytes = assay: Pre-oligodendrocyte proliferation, CyQUANT NF Cell Proliferation assay; type: cell-based, rat; details: for IC50: exposure 72-96 h, 1 nM to 100 μM, cellular DNA content fluorescence
Experimental: Purified oligodendrocyte progenitor cell cultures were prepared as described (Othman et al., 2003, Glia 44:166-172). In brief, primary rat mixed glial cell cultures were isolated from whole brains of postnatal day (P) 1 rats, dissociated into single cells, and cultured into poly-D-lysine (PDL, Sigma-Aldrich, St. Louis, Mo.) coated T75 tissue culture flasks. Plating medium consisted of Dulbecco's modified Eagle's medium (DMEM, Invitrogen, Carlsbad, Calif.) supplemented with 10% fetal bovine serum (FBS; InVitrogen, Carlsbad, Calif.), 2 mM L-glutamine, […]. Tissue cultures were maintained at 37° C. in a humidified 5% CO2 incubator, and medium was exchanged every 3 days. Once confluent (after 7-9 days), microglia were separated by mechanical shaking of flasks on a rotary shaker for 60 min at 200 rpm and removed. After addition of fresh medium, the remaining cells were allowed to recover overnight before repeating the mechanical shaking for an additional 16 h at 200 rpm to isolate oligodendrocyte progenitor cells. To ensure purity of oligodendrocyte progenitor cell cultures, the isolated cells were transferred to a tissue culture dish, from which the loosely attached oligodendrocyte progenitor cells were detached by gentle shaking after 60 min, leaving behind attached microglia and astrocytes. Oligodendrocyte progenitor cells were plated onto PDL coated 96 well plates using an automated dispenser and allowed to adhere to the plates over the next 1-2 days. This procedure yielded 98% A2B5-positive (OPC marker), and 2% MBP-positive (mature OL marker) cells. GFAP-positive (astrocyte marker) or O22A-positive (microglia marker) cells could not be detected in cultures prepared in this manner.
Cells were exposed to various KATP channel stimulators, with concentrations of compounds ranging from 1 nM to 100 μM, for 72-96 h. Pre-oligodendrocytes were cultured in 384-well plates, at a concentration of 10,000 cells per well. Cultures were washed two times with DMEM to remove any residual serum and then the respective solutions of KATP channel activators were added daily in an incubation buffer of DMEM with 0.5% FBS+10 μg/ml biotin and N2 supplement. Cells were then placed at 37° C. in a humidified atmosphere containing 5% CO2. All concentrations were tested in triplicate and each study was repeated twice.
To evaluate cell proliferation in response to KATP channel stimulators, the CyQUANT® NF Cell Proliferation assay (Invitrogen, Carlsbad, Calif.) was used according to the manufacturer's instructions. This assay measured cellular DNA content as a direct index of cell proliferation. Since cellular DNA content is highly proportional to cell number, this is a very accurate way to assess cell proliferation specifically. At the end of drug exposure, medium was removed and a stock solution of the green-fluorescent CyQUANT GR dye (prepared according to manufacturer's instructions) was added. […] Fluorescence was measured using an Envision Multilabel reader (Perkin-Elmer; Excitation: 480 nm, Emission: 530 nm).

C57BL/6 mice = assay: Hypoxia-induced periventricular white matter injury in neonatal mice; type: in vivo, mouse; details: for myelin basic protein-labeling (myelination): vs vehicle
Experimental: The effect of diazoxide in hypoxia-induced periventricular white matter injury was assessed. C57BL/6 mice were reared in […] 10% O2 from P3 to P12. Pups were treated with daily injection of either diazoxide or vehicle, with at least eight animals in each treatment group. Mice were weighed every two days. At P12, brains were removed. Ventricle size and myelin basic protein (MBP) labeling were assessed. C57BL/6 mice were exposed to low or normal oxygen conditions from P3-P12 (Turner et al., 2003, Proc. Natl. Acad. Sci. USA 100:11718-11722). In brief, litters of pups (P3) were placed with the dam in a Plexiglas chamber, in which oxygen levels were maintained at 9.5±1.0%, O2 levels were continuously monitored using a Cameron Instrument (Ontario, Canada) dual channel oxygen monitor attached to O2 electrodes placed at each end of the chamber. Control animals were kept in room air (˜22%) outside the Plexiglas chamber. Animals were removed from the chamber daily for less than 15 min to allow for diazoxide (10 mg/kg i.p.) or vehicle administration, as well as observation of weight gain. Mice were euthanized at P12, brains were harvested and shock frozen in ice cold (−20° C.) 2-methylbutane and stored at −80° C. until assessment of ventricular size or MBP immunocytochemistry (see below). At least eight animals were studied in each treatment group. Ventricle size was determined as reported (Turner et al., 2003, Proc. Natl. Acad. Sci. USA 100:11718-11722). Animals were weighed, anesthetized, and decapitated. Brains were shock frozen in ice cold (−20° C.) 2-methylbutane and stored at −80° C. Coronal sections spanning the brain were cut in a cryostat at a thickness of 16 μm in a Zeiss cryostat. Sections were mounted onto glass slides and stained with Phoenix Blue (Thermo Scientific, Waltham, Mass.). […] Ventricular sizes were quantified using Sigma Scan Pro Image Analysis Version 5.0.0 (SPSS Inc., Chicago, Ill.). The ventricular area, outlined by the Phoenix Blue staining, was measured and numerically integrated across the thickness of the slice. […]

`CCC(C)(C)/N=C(/NC#N)Nc1cccnc1` [P 1075, (E)-1-cyano-2-tert-pentyl-3-(pyridin-3-yl)guanidine] showed an IC50 (pre-oligodendrocytes; Rattus norvegicus) of 100 nM.
Compound `CC(=O)N(O)[C@@H]1c2cc(C#N)ccc2OC(C)(C)[C@H]1O` [Y26763, N-((3S,4R)-6-cyano-3-hydroxy-2,2-dimethylchroman-4-yl)-N-hydroxyacetamide] has an IC50 (pre-oligodendrocytes; Rattus norvegicus) of 200 nM.
In the case of `CC(O)(C(=O)Nc1ccc(S(=O)(=O)c2ccccc2)cc1)C(F)(F)F` (stereo not drawn) [ZM26600, 3,3,3-trifluoro-2-hydroxy-2-methyl-N-(4-(phenylsulfonyl)phenyl) propanamide], the IC50 (pre-oligodendrocytes) is reported as 2500 nM.
In the case of `CC1=NS(=O)(=O)c2cc(Cl)ccc2N1` [diazoxide, 7-chloro-3-methyl-4H-1,2,4-benzothiadiazine 1,1-dioxide], the “myelin basic protein-labeling (myelination)” value (C57BL/6 mice; chronic hypoxia P3-P12, 10 mg/kg i.p. daily) is reported as “markedly improved”, the “ventricle size (ventriculomegaly)” value (C57BL/6 mice; hypoxia 10% O2 P3-P12, 10 mg/kg i.p. daily, p<0.05 ANOVA vs hypoxia-vehicle) is reported as “not enlarged” and the “myelin basic protein-labeling (myelination)” value (C57BL/6 mice; room air, 10 mg/kg i.p. daily) is reported as “More myelin basic protein-labeling”. It also gave an EC50 (pre-oligodendrocytes; Rattus norvegicus, quoted in the cell toxicity study, read-out: observed EC50 value (pre-oligodendrocyte proliferation)) of 10 nM.
`CC1(C)Oc2ccc(C#N)cc2[C@@H](N2CCCC2=O)[C@@H]1O` [levcromakalim, (3S,4R)-3-hydroxy-2,2-dimethyl-4-(2-oxopyrrolidin-1-yl)chroman-6-carbonitrile] gave an IC50 (pre-oligodendrocytes; Rattus norvegicus) of 2500 nM.
Work on `CC(N/C(=N\C#N)Nc1ccncc1)C(C)(C)C` (stereo not drawn) [pinacidil, (E)-1-(3,3-dimethylbutan-2-yl)-2-cyano-3-(pyridin-4-yl)guanidine] yielded an IC50 (pre-oligodendrocytes; Rattus norvegicus) of 10000 nM.

Reference: patent publication US20120100229A1, “Treatment and Prevention of White Matter Injury with KATP Channel Activators” (Yale University, priority 2009, published 2012)
